Data: US12606739B2, “Luminescent compound, method for producing luminescent compound, luminescent composition, luminescent thin film and luminescent particles” (KONICA MINOLTA, INC., priority 2020, dated 2026)

Assay: Luminescence quantum yield of luminescent particles (melamine resin particles, aqueous dispersion)
Type: physicochemical
Conditions: luminescent particle, concentration of the dye in the particle 20%, absolute fluorescence quantum yield
Experimental: The synthesized luminescent compound (Exemplary Compound 1-1) according to one or more embodiments of the present invention was added to 22 mL of water and dissolved. Thereafter, 2 mL of a 5% aqueous solution of Emulsion® 430 (polyoxyethyleneoleyl ether, manufactured by Kao Corporation), an emulsifier for emulsion polymerization, was added to the solution. After the solution was heated to 70° C. with stirring on a hot stirrer, 0.65 g of NIKALAC MX-035 (manufactured by Nippon Carbide Industries Co., Inc.), a melamine resin raw material, was added thereto. […]
Specifically, centrifugation was performed for 15 minutes at 20000 G using a centrifuge (Micro Refrigerated Centrifuge Model 3740 manufactured by Kubota Corporation), the supernatant was removed, ultrapure water was added thereto, ultrasonic irradiation was performed, and redispersion was performed. […] The absolute fluorescence quantum yield of the obtained aqueous dispersion of the fluorescent particles was measured using the fluorescence quantum yield measuring device (C11347-01, manufactured by Hamamatsu Photonics K.K), and this was taken as the luminescence quantum yield of the luminescent particles.
With respect to the above-described Comparative Compound 1 and Comparative Compound 2, preparation of luminescent particles and measurement of the luminescence quantum yield were performed in the same manner. […]

CC(C)c1cccc(C(C)C)c1N1C(=O)c2cc(Oc3ccc(S(=O)(=O)O)cc3)c3c4c(Oc5ccc(S(=O)(=O)O)cc5)cc5c6c(cc(Oc7ccc(S(=O)(=O)O)cc7)c(c7c(Oc8ccc(S(=O)(=O)O)cc8)cc(c2c37)C1=O)c64)C(=O)N(c1c(C(C)C)cccc1C(C)C)C5=O [Comparative Compound 1]
Luminescence Quantum Yield: 10%

CC(C)c1cccc(C(C)C)c1N1C(=O)c2cc(Oc3ccc(S(=O)(=O)O)cc3-c3ccccc3)c3c4c(Oc5ccc(S(=O)(=O)O)cc5-c5ccccc5)cc5c6c(cc(Oc7ccc(S(=O)(=O)O)cc7-c7ccccc7)c(c7c(Oc8ccc(S(=O)(=O)O)cc8-c8ccccc8)cc(c2c37)C1=O)c64)C(=O)N(c1c(C(C)C)cccc1C(C)C)C5=O [Comparative Compound 2]
Luminescence Quantum Yield: 9%
